In patent publication US20190040025A1, “INDOLEAMINE 2,3-DIOXYGENASE INHIBITOR, PREPARATION METHOD THEREFOR, AND APPLICATION” (Jiangsu Hansoh Pharmaceutical Group Co., Ltd., priority 2016, published 2019):

Experiments:
[1] = system: mouse pancreatic cancer cell line PAN02; test: Anti-tumor effect in PAN02 tumor-bearing mouse model; format: in vivo, mouse (C57/BL6); settings: PAN02 tumor-bearing mice, 50 mg/kg intragastric twice a day
Source text: The invention used the PAN02 tumor-bearing mouse model to test the anti-tumor effect of the example compounds. The PAN02 tumor-bearing mouse model was the mouse pancreatic cancer cell line PAN02 purchased from Guangzhou Ginnio Biological Technology Co., Ltd., and the culture medium used was DMEM containing 10% fetal bovine serum. The mouse strain used for tumor-bearing was C57/BL6 purchased from Shanghai Slac Laboratory Animal Co., Ltd. At the time of implanting, the PAN02 cells in the logarithmic growth phase were collected, and mixed with the BDMatrigel matrix gel that reduced the growth factor to 50 million cells/ml. Each mouse was implanted subcutaneously with 100 μL of 5 million cells. When the tumor grew to about 100 cubic millimeters, animals were randomly divided into groups with 8 animals per group. Drug administration was started (D0).
Mode of administration: intragastrical administration, twice a day.
(§1) Formulation prescription: 3% two methyl acetamide and 20% hydroxypropyl-β-cyclodextrin. • Administration period and tumor measurement: The administration period was 13 days. The tumor volume was measured, the mice were weighed, and the data were recorded, 3 times a week. The calculation formula of tumor volume (V) is: V=½a×b2, where a and b represent length and width respectively. The calculation formula of T/C is: T/C (%)=100×ΔT/ΔC. Tumor inhibition rate (%)=1−T/C (%). • Experimental results: the anti-tumor effect of the compound of Example 15 in PAN02 tumor-bearing mouse model is shown in the following table.

[2] = system: mouse rectal cancer cell line Colon26; test: Anti-tumor effect in Colon26 tumor-bearing mouse model; format: in vivo, mouse (Balb/c); settings: Colon26 tumor-bearing mice
Source text: The present invention further used the Colon26 tumor-bearing mouse model to test the anti-tumor effect of the example compounds. The Colon26 tumor-bearing mouse model was the mouse rectal cancer cell line Colon26 purchased from Guangzhou Ginio Biological Technology Co., Ltd., and the culture medium used was RPMI1640 containing 10% fetal bovine serum. The mouse strain used for tumor-bearing was Balb/c purchased from Sino-British SIPPR/BK Lab Animal Co., Ltd. At the time of implanting, the Colon26 cells in logarithmic growth phase were collected and mixed to 10 million cells/ml. Each mouse was implanted subcutaneously with 100 μl of one million cells. When the tumor grew to about 100 cubic millimeters, animals were randomly divided into groups with 8 animals per group. Drug administration was started (D0).
Mode of administration: intragastric administration, twice a day.
as §1, with “3% dimethylacetamide” for “3% two methyl acetamide”, “times per” for “times a”, “is: V=½a×b2” for “is: V=½a×b2,”, “and width,” for “and width”, “results: The antitumor” for “results: the anti-tumor”, “in Colon26” for “in PAN02”
Under the same experimental conditions, the dosage was adjusted. The anti-tumor effect of Example 15 and its optical isomers 18-(1) and 18-(2) in Colon26 tumor-bearing mouse model is shown in the following table: […]

[3] = 25 mg/kg intragastric twice a day, D12

CS(=O)(CCNc1nonc1/C(=N/O)Nc1ccc(F)c(Br)c1)=NS(=O)(=O)C1CC1 (stereo not drawn) [Example 15, (Z)—N-(3-bromo-4-fluorophenyl)-4-((2-(N-(cyclopropylsulfonyl)-S-methylsulfonimidoyl)ethyl)amino)-N′-hydroxy-1,2,5-oxadiazole-3-carboximidamide]
Average tumor volume (mm^3 ± SEM) D0 ([1]; D0 (start of administration)): 105.0 ± 3.4 mm^3 | Average tumor volume (mm^3 ± SEM) D12 ([1]; D12): 163.3 ± 11.0 mm^3 | T/C (%) D12 ([1]; D12): 25.2% | Tumor inhibition rate (%) D12 ([1]; D12, 50 mg/kg): 74.8% | Tumor inhibition rate (%) D12 ([2]; 10 mg/kg, D12): 71.10% | Average tumor volume (mm^3 ± SEM) D0 ([2]; 25 mg/kg intragastric twice a day, D0 (start of administration)): 95.5 ± 2.0 mm^3 | Average tumor volume (mm^3 ± SEM) D12 [2, 3]: 212.7 ± 28.9 mm^3 | T/C (%) D12 [2, 3]: 5.4% | Tumor inhibition rate (%) D12 ([2]; 25 mg/kg intragastric twice a day, D12, 25 mg/kg): 94.6%
